Among the data in ChEMBL document CHEMBL1909046, “DrugMatrix in vitro pharmacology data” are IC50 and Ki values, retold here.

One may read the IC50 as the point on the concentration scale where inhibition reaches its midpoint. What is called Ki is the equilibrium dissociation constant of an inhibitor or competing ligand from its target.

Molecules are shown by their SMILES.

Test [1] can be described thus: DRUGMATRIX: Calcium Channel Type L, Phenylalkylamine radioligand binding (ligand: [3H] (-)-Desmethoxyverapamil (D-888)). The following applies: Not Active = under 50% inhibition at 10 µM. It is filed as cell membranes, Rattus norvegicus, Wistar, Brain, Membrane.
Test [2] has as its target 5-hydroxytryptamine receptor 4 (Cavia porcellus, UniProt O70528). The class given is cell membranes, Dunkin-Hartley, Striatum, Membrane. Also: in other assays of this panel Not Active means under 50% inhibition at 10 µM.
Test [3] addresses T1, Neuropeptide Y receptor type 2 (Homo sapiens, UniProt P49146).
T1 sequence (P49146 whole entry): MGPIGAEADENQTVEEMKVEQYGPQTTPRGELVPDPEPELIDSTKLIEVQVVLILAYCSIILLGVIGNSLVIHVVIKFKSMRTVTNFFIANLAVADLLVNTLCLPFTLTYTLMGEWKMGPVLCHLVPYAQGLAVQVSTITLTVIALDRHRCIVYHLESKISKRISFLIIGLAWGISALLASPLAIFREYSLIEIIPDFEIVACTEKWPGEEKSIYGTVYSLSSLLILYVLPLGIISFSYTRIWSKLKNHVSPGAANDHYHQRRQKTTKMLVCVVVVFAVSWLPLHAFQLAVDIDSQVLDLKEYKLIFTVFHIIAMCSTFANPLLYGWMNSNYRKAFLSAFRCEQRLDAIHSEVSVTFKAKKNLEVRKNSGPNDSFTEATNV
The class given is cell membranes, Membrane. The following applies: kan-ts.

A short description of test [4]: DRUGMATRIX: Imidazoline I2, Central radioligand binding (ligand: [3H] Idazoxan). It is filed as cell membranes, Rattus norvegicus, Wistar, Cerebral cortex, Membrane. The following applies: Not Active = under 50% inhibition at 10 µM.
Test [5] has as its target T2, Alpha-2A adrenergic receptor (Homo sapiens, UniProt P08913). Also: in other assays of this panel Not Active means under 50% inhibition at 10 µM.
T2 sequence (P08913 whole entry): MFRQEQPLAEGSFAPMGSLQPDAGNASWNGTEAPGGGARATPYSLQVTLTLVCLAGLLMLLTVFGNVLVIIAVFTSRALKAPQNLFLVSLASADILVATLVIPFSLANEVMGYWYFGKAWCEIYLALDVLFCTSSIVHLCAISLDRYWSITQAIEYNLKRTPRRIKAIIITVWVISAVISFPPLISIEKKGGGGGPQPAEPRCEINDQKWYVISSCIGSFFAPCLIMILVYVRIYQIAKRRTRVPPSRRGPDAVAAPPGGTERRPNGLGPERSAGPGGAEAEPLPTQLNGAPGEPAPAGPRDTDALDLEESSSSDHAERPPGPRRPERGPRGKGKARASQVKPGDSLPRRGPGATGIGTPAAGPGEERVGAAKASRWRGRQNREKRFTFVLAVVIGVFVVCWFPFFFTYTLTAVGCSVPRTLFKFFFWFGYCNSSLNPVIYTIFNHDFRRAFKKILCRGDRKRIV
The class given is cell membranes, Sf9, Membrane. The following applies: sf9.

5-hydroxytryptamine receptor 4, sequence (O70528 whole entry): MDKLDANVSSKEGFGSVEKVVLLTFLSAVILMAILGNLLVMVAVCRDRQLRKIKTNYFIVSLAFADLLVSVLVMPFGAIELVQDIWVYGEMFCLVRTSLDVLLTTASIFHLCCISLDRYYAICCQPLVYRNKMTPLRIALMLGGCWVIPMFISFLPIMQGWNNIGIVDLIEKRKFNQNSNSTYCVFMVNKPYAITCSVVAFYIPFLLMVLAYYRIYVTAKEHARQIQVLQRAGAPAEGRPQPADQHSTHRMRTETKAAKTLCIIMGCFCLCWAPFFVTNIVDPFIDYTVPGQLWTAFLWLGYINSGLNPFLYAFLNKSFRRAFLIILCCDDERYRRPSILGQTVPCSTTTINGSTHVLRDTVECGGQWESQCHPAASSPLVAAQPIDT

On to `Nc1c(Br)cc(Br)cc1CN[C@H]1CC[C@H](O)CC1` [AMBROXOL], for which the 50% inhibitory concentration (IC50) result in test [1], in test [2], in test [3], in test [4] and in test [5] was “Not Active” each time. The Ki entry in test [1] and in test [4] was “Not Active” each time.
On to `CC(C)(C)NCC(O)c1cc(Cl)c(N)c(Cl)c1` (configuration not stated) [CLENBUTEROL], for which the IC50 result in test [1], in test [2], in test [3], in test [4] and in test [5] was “Not Active” in each case. Further, the Ki entry in test [1] and in test [4] was “Not Active” in each case.
In the case of `C[C@](N)(Cc1ccc(O)c(O)c1)C(=O)O` [METHYLDOPA], the IC50 result in test [1], in test [2], in test [3], in test [4] and in test [5] was “Not Active” in each case. In addition, the Ki result in test [1] and in test [4] was “Not Active” each time.
In the case of `Cc1ccccc1N1C(=O)c2cc(S(N)(=O)=O)c(Cl)cc2NC1C` (configuration not stated) [METOLAZONE], the IC50 entry in test [1], in test [2], in test [3], in test [4] and in test [5] was “Not Active” throughout. In addition, the inhibition constant Ki result in test [1] and in test [4] was “Not Active” in each case.
As for `Nc1nc2c(ncn2CCC(CO)CO)c(=O)[nH]1` [PENCICLOVIR], the 50% inhibitory concentration (IC50) result in test [1], in test [2], in test [3], in test [4] and in test [5] was “Not Active” each time. Moreover, the inhibitory constant (Ki) entry in test [1] and in test [4] was “Not Active” in each case.
As to `CCOc1ccc(NC(C)=O)cc1` [PHENACETIN], the half-maximal inhibitory concentration (IC50) entry in test [1], in test [2], in test [3], in test [4] and in test [5] was “Not Active” throughout. Besides, the Ki entry in test [1] and in test [4] was “Not Active” in each case.
On to `Cc1cc(C(C#N)c2ccc(Cl)cc2)c(Cl)cc1NC(=O)c1cc(I)cc(I)c1O` (configuration not stated) [CLOSANTEL], for which the IC50 entry in test [1], in test [2], in test [3], in test [4] and in test [5] was “Not Active” in each case. Also, the Ki result in test [1] and in test [4] was “Not Active” each time.
`C[C@]12CC[C@@H]3c4ccc(O)cc4CC[C@H]3[C@@H]1CCC2=O` [ESTRONE]: the half-maximal inhibitory concentration (IC50) result in test [1], in test [2], in test [3], in test [4] and in test [5] was “Not Active” in each case. Besides, the inhibition constant Ki result in test [1] and in test [4] was “Not Active” throughout.
For the compound `NC1=NC(=O)C(c2ccccc2)O1` (configuration not stated) [PEMOLINE], the IC50 entry in test [1], in test [2], in test [3], in test [4] and in test [5] was “Not Active” each time. Also, the Ki entry in test [1] and in test [4] was “Not Active” throughout.
Regarding `CN(C)C(=O)Oc1cc(OC(=O)N(C)C)cc(C(O)CNC(C)(C)C)c1` (configuration not stated) [BAMBUTEROL], the IC50 entry in test [1], in test [2], in test [3], in test [4] and in test [5] was “Not Active” each time. Moreover, the inhibition constant (Ki) result in test [1] and in test [4] was “Not Active” each time.
On to `C[C@H]1c2cccc(O)c2C(=O)C2=C(O)[C@]3(O)C(=O)C(C(N)=O)=C(O)[C@@H](N(C)C)[C@@H]3[C@@H](O)[C@@H]21.O` [DOXYCYCLINE], for which the half-maximal inhibitory concentration (IC50) entry in test [1], in test [2], in test [3], in test [4] and in test [5] was “Not Active” throughout. The Ki entry in test [1] and in test [4] was “Not Active” in each case.
Regarding `CC1(C)S[C@@H]2[C@H](NC(=O)Cc3ccccc3)C(=O)N2[C@H]1C(=O)O` [PENICILLIN G], the concentration for half-maximal inhibition (IC50) result in test [1], in test [2], in test [3], in test [4] and in test [5] was “Not Active” throughout. For the same compound, the Ki result in test [1] and in test [4] was “Not Active” in each case.
As to `C[C@H]1O[C@@H](O[C@H]2[C@@H](O)C[C@H](O[C@H]3[C@@H](O)C[C@H](O[C@H]4CC[C@@]5(C)[C@H](CC[C@@H]6[C@@H]5C[C@@H](O)[C@]5(C)[C@@H](C7=CC(=O)OC7)CC[C@]65O)C4)O[C@@H]3C)O[C@@H]2C)C[C@H](O)[C@@H]1O` [DIGOXIN], the 50% inhibitory concentration (IC50) result in test [1], in test [2], in test [3], in test [4] and in test [5] was “Not Active” each time. Further, the Ki entry in test [1] and in test [4] was “Not Active” each time.
`c1ccc2c(c1)c1cccc3ccc4cccc2c4c31` [BENZO[E]PYRENE]: the IC50 entry in test [1], in test [2], in test [3], in test [4] and in test [5] was “Not Active” each time. The Ki entry in test [1] and in test [4] was “Not Active” each time.
With `Sc1ncnc2nc[nH]c12` [MERCAPTOPURINE ANHYDROUS], the IC50 result in test [1], in test [2], in test [3], in test [4] and in test [5] was “Not Active” throughout. Further, the inhibition constant Ki entry in test [1] and in test [4] was “Not Active” in each case.
With `O=c1oc2ccccc2c(O)c1Cc1c(O)c2ccccc2oc1=O` [DICUMAROL], the IC50 entry in test [1], in test [2], in test [3], in test [4] and in test [5] was “Not Active” throughout. In addition, the Ki result in test [1] and in test [4] was “Not Active” each time.
With `Nc1nc(N)nc(-c2cc(Cl)ccc2Cl)n1.O=C(O)/C=C\C(=O)O` [IRSOGLADINE MALEATE], the IC50 entry in test [1], in test [2], in test [3], in test [4] and in test [5] was “Not Active” in each case. Further, the Ki entry in test [1] and in test [4] was “Not Active” in each case.
With `CC1(C)O[C@@H]2C[C@H]3[C@@H]4CCC5=CC(=O)CC[C@]5(C)[C@@]4(F)[C@@H](O)C[C@]3(C)[C@]2(C(=O)CCl)O1` [HALCINONIDE], the IC50 result in test [1], in test [2], in test [3], in test [4] and in test [5] was “Not Active” throughout. The Ki result in test [1] and in test [4] was “Not Active” each time.
For `O=c1[nH]c(=O)n([C@H]2C[C@H](O)[C@@H](CO)O2)cc1I` [IDOXURIDINE], the half-inhibitory concentration (IC50) result in test [1], in test [2], in test [3], in test [4] and in test [5] was “Not Active” throughout. For the same compound, the Ki entry in test [1] and in test [4] was “Not Active” in each case.
Take `CC(C)C(=O)Nc1ccc([N+](=O)[O-])c(C(F)(F)F)c1` [FLUTAMIDE]: the IC50 entry in test [1] was “Not Active”; in test [2] (read-out: IC50), 13.5 µM; in test [3], “Not Active”; in test [4] it was “Not Active”; in test [5], “Not Active”. Moreover, the Ki result was “Not Active” in test [1], 2.26 µM in test [2] (read-out: Ki) and “Not Active” in test [4].
Regarding `CCC1(c2ccc(N)cc2)CCC(=O)NC1=O` (configuration not stated) [AMINOGLUTETHIMIDE], the IC50 result in test [1], in test [2], in test [3], in test [4] and in test [5] was “Not Active” throughout. Moreover, the Ki result in test [1] and in test [4] was “Not Active” in each case.
For `Cc1ccc2cc3c(ccc4ccccc43)c3c2c1CC3` [3-METHYLCHOLANTHRENE], the IC50 result in test [1], in test [2], in test [3], in test [4] and in test [5] was “Not Active” throughout. The inhibition constant Ki result in test [1] and in test [4] was “Not Active” throughout.
`O=C(O)CCCc1ccc(N(CCCl)CCCl)cc1` [CHLORAMBUCIL]: the IC50 entry in test [1], in test [2], in test [3], in test [4] and in test [5] was “Not Active” each time. In addition, the inhibitory constant (Ki) result in test [1] and in test [4] was “Not Active” each time.
